We go through twelve compounds from ChEMBL document CHEMBL1201862, “PubChem BioAssay data set” (2004).

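Each compound was tested at five concentrations against cells in 96-well plates for 48 hours. Abbreviation: GI50, concentration required for 50% inhibition of growth.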 Active and inactive are the calls of the source. No stated cut-off is given here; in the data, active = GI50 up to about 1.1 µM and inactive = higher.

Some test systems named below: RXF 393; Hs-578T; UACC-257; IGROV-1; MCF7; TK-10; HCT-15; LOX IMVI; SK-MEL-2; SW-620; MDA-MB-231; SF-268; PC-3; SNB-19; NCI-H460; KM12; DMS-273; LXFL 529.
Holding throughout (assay): NCI anticancer screen, dose series, 48 h

Take `O=C1[C@@H]2[C@@H](CN3CN(c4ccccc4)N=C(c4ccccc4)[C@@]23c2ccccc2)C(=O)N1c1ccccc1`: the GI50 in the test with RXF 393 is 2.95 µM (inactive); with Hs-578T, 20.3 µM (inactive); with UACC-257, 12 µM (inactive); with IGROV-1, 13.8 µM (inactive); in the test with MCF7 it was 1.94 µM (inactive); with TK-10, 1.48 µM (inactive). Also, the GI50 in the test on HCT-15 was 2.3 µM; in the test on LOX IMVI, 1.68 µM (inactive); in the test with SK-MEL-2, 14.9 µM (inactive); in the test with SW-620, 2 µM (inactive); with MDA-MB-231 it was 4.54 µM (inactive); in the test with SF-268, 18.8 µM (inactive). The GI50 is 6.31 µM (inactive) in the test on PC-3, 16.7 µM (inactive) in the test on SNB-19, 19.8 µM (inactive) in the test with NCI-H460 and 14.3 µM (inactive) with KM12.

Turning to `COc1cc([C@@H]2c3cc4c(cc3[C@@H](Nc3ccc(Cl)cc3C(=O)c3ccccc3Cl)[C@H]3COC(=O)[C@H]23)OCO4)cc(OC)c1OC`, the GI50 is 0.144 µM (active) with RXF 393; 0.0241 µM (active) with Hs-578T; 0.184 µM (active) in the test on UACC-257; 0.261 µM (active) with IGROV-1; 0.111 µM (active) in the test with MCF7; 39.7 µM (inactive) in the test on TK-10. In addition, the GI50 in the test on HCT-15 is 0.102 µM; in the test on LOX IMVI, 0.245 µM (active); in the test with SK-MEL-2 it was 0.953 µM (active); in the test on SW-620 it was 0.122 µM (active); in the test on MDA-MB-231, 0.39 µM (active); in the test with SF-268, 0.189 µM (active). The GI50 was 0.16 µM (active) in the test on PC-3, 0.174 µM (active) in the test with SNB-19, 0.146 µM (active) with NCI-H460 and 0.091 µM (active) with KM12.

In the case of `CC(CO)(CO)N1C(=O)C2C3C=CC(C3)C2C1=O` (centres undefined), the GI50 in the test with RXF 393 was 52.1 µM (inactive); in the test with Hs-578T, > 100 µM (inactive); in the test with UACC-257 it was > 100 µM (inactive); with IGROV-1, > 100 µM (inactive); in the test with MCF7, > 100 µM (inactive); with TK-10, > 100 µM (inactive). Further, the GI50 is over 100 µM in the test with HCT-15; > 100 µM (inactive) in the test with LOX IMVI; > 100 µM (inactive) with SK-MEL-2; > 100 µM (inactive) in the test with SW-620; > 100 µM (inactive) in the test with MDA-MB-231; > 100 µM (inactive) in the test with SF-268. The GI50 with PC-3, in the test on SNB-19, in the test on NCI-H460 and with KM12 was > 100 µM (inactive) throughout.

On to `CCn1c(SCC(=O)N/N=C/c2ccccc2)nc2ccccc2c1=O`, for which the GI50 in the test with RXF 393 was 7.19 µM (inactive); with Hs-578T it was 8.41 µM (inactive); in the test on UACC-257 it was 21.8 µM (inactive); in the test on IGROV-1 it was 12.9 µM (inactive); in the test with MCF7, 4.75 µM (inactive); in the test on TK-10, > 55.1 µM (inactive). The GI50 was 3.87 µM with HCT-15; 6.68 µM (inactive) with LOX IMVI; 11.7 µM (inactive) in the test on SK-MEL-2; 1.99 µM (inactive) with SW-620; 14.3 µM (inactive) in the test on MDA-MB-231; 15.8 µM (inactive) with SF-268. The GI50 in the test on PC-3 was 15 µM (inactive); in the test with SNB-19 it was 18.5 µM (inactive); with NCI-H460, 2.13 µM (inactive); with KM12, 3.64 µM (inactive).

`COc1ccc2cc(CN3CCC(C4CCN(Cc5ccc6cc(OC)ccc6c5)CC4)CC3)ccc2c1`: the GI50 was 5.16 µM (inactive) in the test on RXF 393; 4.61 µM (inactive) with Hs-578T; 2.09 µM (inactive) with UACC-257; 8.77 µM (inactive) in the test with IGROV-1; 4.06 µM (inactive) with MCF7; 3.25 µM (inactive) in the test with TK-10. Besides, the GI50 in the test with HCT-15 was 1.45 µM; with LOX IMVI it was 2.14 µM (inactive); in the test with SK-MEL-2, 4.44 µM (inactive); with SW-620 it was 2.64 µM (inactive); with MDA-MB-231, 2.52 µM (inactive); with SF-268 it was 3.16 µM (inactive). Also, the GI50 was 15.8 µM (inactive) with PC-3, 3.2 µM (inactive) with SNB-19, 2.17 µM (inactive) in the test with NCI-H460 and 2.43 µM (inactive) in the test with KM12.

As to `O=C(NS(=O)(=O)OCC(Cl)(Cl)Cl)SCCC(F)(F)C(F)(F)C(F)(F)C(F)(F)C(F)(F)C(F)(F)F`, the GI50 is 22.5 µM (inactive) with RXF 393; 19 µM (inactive) in the test with Hs-578T; 35.5 µM (inactive) with UACC-257; 37.4 µM (inactive) with IGROV-1; 20 µM (inactive) in the test with MCF7; 29.5 µM (inactive) in the test on TK-10. The GI50 in the test with HCT-15 is 20.9 µM; with LOX IMVI it was 22.5 µM (inactive); in the test on SK-MEL-2, 25.3 µM (inactive); in the test on SW-620 it was 20.2 µM (inactive); in the test with MDA-MB-231, 25.4 µM (inactive); with SF-268 it was 40.4 µM (inactive). For the same compound, the GI50 in the test on PC-3 is 16.5 µM (inactive); in the test with SNB-19 it was 17.9 µM (inactive); with NCI-H460 it was 19.6 µM (inactive); in the test on KM12, 19.9 µM (inactive).

For `CCCc1[nH]c2ccccc2c1-c1c(CCC)[nH]c2ccccc12`, the GI50 with RXF 393 was 20 µM (inactive); with Hs-578T, 6.95 µM (inactive); in the test on UACC-257, 18.1 µM (inactive); in the test on IGROV-1, 12 µM (inactive); in the test on MCF7, 4.66 µM (inactive); in the test with TK-10, 21.6 µM (inactive). For the same compound, the GI50 is 3.62 µM in the test with HCT-15; 4.35 µM (inactive) in the test with LOX IMVI; 14.2 µM (inactive) with SK-MEL-2; 6.76 µM (inactive) in the test with SW-620; 15.3 µM (inactive) in the test on MDA-MB-231; 9.62 µM (inactive) with SF-268. Also, the GI50 was 5.42 µM (inactive) with PC-3, 13.5 µM (inactive) in the test with SNB-19, 23.9 µM (inactive) in the test with NCI-H460 and 16.6 µM (inactive) in the test on KM12.

Regarding `O=c1cnn(C/C=C\CO)c(=O)[nH]1`, the GI50 is > 100 µM (inactive) with RXF 393; > 100 µM (inactive) in the test on Hs-578T; > 100 µM (inactive) in the test with UACC-257; > 100 µM (inactive) with IGROV-1; > 100 µM (inactive) in the test on MCF7; 75.2 µM (inactive) in the test with TK-10. Further, the GI50 with HCT-15 is over 100 µM; in the test on LOX IMVI, > 100 µM (inactive); with SK-MEL-2, > 100 µM (inactive); in the test with SW-620 it was > 100 µM (inactive); in the test on MDA-MB-231, > 100 µM (inactive); in the test on SF-268, > 100 µM (inactive). In addition, the GI50 in the test with PC-3, in the test with SNB-19, in the test with NCI-H460 and with KM12 was > 100 µM (inactive) throughout.

Regarding `C[C@]12CC[C@H](OC(=O)Cc3ccc(N(CCCl)CCCl)cc3)CC1=CC[C@@H]1[C@@H]2CC[C@]2(C)C(=O)CC[C@@H]12`, the GI50 in the test with RXF 393, in the test with Hs-578T, in the test on UACC-257, with IGROV-1, with MCF7 and with TK-10 was > 100 µM (inactive) in each case. For the same compound, the GI50 in the test on HCT-15 is over 100 µM; in the test with LOX IMVI it was > 100 µM (inactive); in the test on SK-MEL-2, > 100 µM (inactive); with SW-620, > 100 µM (inactive); in the test with MDA-MB-231, > 100 µM (inactive); in the test with SF-268 it was > 100 µM (inactive). The GI50 in the test with PC-3, in the test on SNB-19, in the test on NCI-H460 and with KM12 was > 100 µM (inactive) in each case.

For the compound `COc1cc(C=O)cc(/C=N/c2ccc(S(N)(=O)=O)cc2)c1O`, the GI50 is 3.99 µM (inactive) with RXF 393; 2.82 µM (inactive) in the test with Hs-578T; 6.92 µM (inactive) with UACC-257; > 100 µM (inactive) in the test with IGROV-1; > 100 µM (inactive) in the test with MCF7; 31.7 µM (inactive) in the test on TK-10. Also, the GI50 in the test on HCT-15 is 63.1 µM; in the test on LOX IMVI it was 10.9 µM (inactive); in the test with SK-MEL-2 it was 4.47 µM (inactive); in the test with SW-620, 24.4 µM (inactive); with MDA-MB-231, 20.4 µM (inactive); in the test with SF-268, 4.13 µM (inactive). Moreover, the GI50 in the test on PC-3 was 2.96 µM (inactive); in the test with SNB-19, 11.3 µM (inactive); with NCI-H460, 26.2 µM (inactive); in the test on KM12, 27.7 µM (inactive).

For the compound `Oc1ccc(-c2nc3ccc4ccccc4c3c3c2CCCC3)c(O)c1`, the GI50 with RXF 393 was 34.9 µM (inactive); in the test with Hs-578T, 24.2 µM (inactive); in the test with UACC-257 it was 10.5 µM (inactive); in the test with IGROV-1, 4.34 µM (inactive); with MCF7, 27.7 µM (inactive); with TK-10, 37.1 µM (inactive). Further, the GI50 in the test with HCT-15 is 26.5 µM; with LOX IMVI it was 32.7 µM (inactive); in the test on SK-MEL-2 it was 9.08 µM (inactive); in the test with SW-620 it was 20.4 µM (inactive); in the test on MDA-MB-231, 12.9 µM (inactive); in the test on SF-268 it was 22.2 µM (inactive). Also, the GI50 is 21.6 µM (inactive) in the test on PC-3, 16.3 µM (inactive) in the test with SNB-19, 19.6 µM (inactive) with NCI-H460 and 13.8 µM (inactive) with KM12.

`CC1OC(n2cc(F)c(=O)[nH]c2=O)CCC1O` (centres undefined): the GI50 is > 79.6 µM (inactive) in the test on RXF 393; > 100 µM (inactive) in the test on DMS-273; 99.1 µM (inactive) with Hs-578T; > 100 µM (inactive) with LXFL 529; > 100 µM (inactive) in the test with UACC-257; > 100 µM (inactive) with IGROV-1. Moreover, the GI50 was 30.1 µM (inactive) in the test with MCF7; > 100 µM (inactive) in the test on TK-10; over 94.4 µM in the test on HCT-15; > 100 µM (inactive) in the test on LOX IMVI; > 100 µM (inactive) in the test on SK-MEL-2; > 100 µM (inactive) with SW-620. Also, the GI50 is > 100 µM (inactive) with MDA-MB-231; > 100 µM (inactive) in the test on SF-268; > 100 µM (inactive) in the test on PC-3; > 100 µM (inactive) in the test with SNB-19; 50.8 µM (inactive) in the test with NCI-H460; > 96.2 µM (inactive) with KM12.
